Experiments:
[1] = system: OVCAR-8; assay: Cytotoxicity against human OVCAR8 cells assessed as growth inhibition at 10 uM after 48 hrs by sulforhodamine B assay; type: functional; conditions: read-out: GI
[2] = system: SNB-19; assay: Cytotoxicity against human SNB-19 cells assessed as growth inhibition at 10 uM after 48 hrs by sulforhodamine B assay; type: functional; conditions: read-out: GI
[3] = system: HCT-15; assay: Cytotoxicity against human HCT-15 cells assessed as growth inhibition at 10 uM after 48 hrs by sulforhodamine B assay; type: functional; conditions: read-out: GI
[4] = system: NCI/ADR-RES; assay: Cytotoxicity against human NCI-ADR-RES cells assessed as growth inhibition at 10 uM after 48 hrs by sulforhodamine B assay; type: functional; conditions: read-out: GI
[5] = system: MCF7; assay: Induction of apoptosis in human MCF7 cells assessed as early apoptotic cells at 13.30 uM after 48 hrs by annexin V-FITC/propidium iodide staining based flow cytometric analysis (reference value: 0.36%); type: functional; conditions: dose 13.3 µM
[6] = system: K562; assay: Cytotoxicity against human K562 cells assessed as growth inhibition at 10 uM after 48 hrs by sulforhodamine B assay; type: functional; conditions: read-out: GI
[7] = system: NCI-H522; assay: Cytotoxicity against human NCI-H522 cells assessed as growth inhibition at 10 uM after 48 hrs by sulforhodamine B assay; type: functional; conditions: read-out: GI
[8] = system: ACHN; assay: Cytotoxicity against human ACHN cells assessed as growth inhibition at 10 uM after 48 hrs by sulforhodamine B assay; type: functional; conditions: read-out: GI
[9] = system: MOLT-4; assay: Cytotoxicity against human MOLT-4 cells assessed as growth inhibition at 10 uM after 48 hrs by sulforhodamine B assay; type: functional; conditions: read-out: GI
[10] = system: HOP-62; assay: Cytotoxicity against human HOP-62 cells assessed as growth inhibition at 10 uM after 48 hrs by sulforhodamine B assay; type: functional; conditions: read-out: GI
[11] = system: SN12C; assay: Cytotoxicity against human SN12C cells assessed as growth inhibition at 10 uM after 48 hrs by sulforhodamine B assay; type: functional; conditions: read-out: GI
[12] = system: MCF7; assay: Induction of cell cycle arrest in human MCF7 cells assessed as accumulation of cells at G1 phase at IC50 concentration by Propidium iodide staining based flow cytometric analysis (reference value: 61.45%); type: functional
[13] = molecular target: Phosphatidylinositol 4,5-bisphosphate 3-kinase catalytic subunit beta isoform (Homo sapiens, UniProt P42338); assay: Inhibition of PI3Kbeta (unknown origin) using PIP2 as substrate preincubated for 10 mins followed by substrate addition and measured after 1 hr by ELISA
Sequence of Phosphatidylinositol 4,5-bisphosphate 3-kinase catalytic subunit beta isoform (P42338 whole entry, canonical isoform): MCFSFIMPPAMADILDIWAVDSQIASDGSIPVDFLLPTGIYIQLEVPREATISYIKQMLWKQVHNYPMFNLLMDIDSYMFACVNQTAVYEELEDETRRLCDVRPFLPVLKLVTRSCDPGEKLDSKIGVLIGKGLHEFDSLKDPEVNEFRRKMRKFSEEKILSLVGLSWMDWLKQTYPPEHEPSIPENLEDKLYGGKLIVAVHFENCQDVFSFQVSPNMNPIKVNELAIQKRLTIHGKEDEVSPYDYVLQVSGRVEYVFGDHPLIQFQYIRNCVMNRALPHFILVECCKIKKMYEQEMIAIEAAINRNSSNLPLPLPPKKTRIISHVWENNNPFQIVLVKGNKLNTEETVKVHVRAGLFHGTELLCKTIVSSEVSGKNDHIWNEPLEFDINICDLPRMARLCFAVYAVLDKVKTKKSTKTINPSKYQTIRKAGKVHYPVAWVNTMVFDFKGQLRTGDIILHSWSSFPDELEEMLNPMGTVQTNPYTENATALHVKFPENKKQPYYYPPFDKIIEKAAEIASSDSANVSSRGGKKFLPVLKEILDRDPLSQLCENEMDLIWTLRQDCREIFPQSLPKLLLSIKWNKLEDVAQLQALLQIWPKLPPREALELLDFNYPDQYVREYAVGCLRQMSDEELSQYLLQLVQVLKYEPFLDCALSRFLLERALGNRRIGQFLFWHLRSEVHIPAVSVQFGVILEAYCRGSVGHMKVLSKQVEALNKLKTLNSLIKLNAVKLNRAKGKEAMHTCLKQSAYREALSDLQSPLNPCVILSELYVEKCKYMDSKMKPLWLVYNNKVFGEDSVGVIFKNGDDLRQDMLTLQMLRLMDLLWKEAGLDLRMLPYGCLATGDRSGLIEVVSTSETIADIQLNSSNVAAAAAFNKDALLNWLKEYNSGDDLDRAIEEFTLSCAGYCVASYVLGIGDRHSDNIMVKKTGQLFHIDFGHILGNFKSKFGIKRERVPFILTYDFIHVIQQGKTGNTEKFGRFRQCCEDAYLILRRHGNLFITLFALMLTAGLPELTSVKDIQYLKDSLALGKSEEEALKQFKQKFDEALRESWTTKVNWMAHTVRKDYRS

[14] = system: HCT-116; assay: Cytotoxicity against human HCT-116 cells assessed as growth inhibition at 10 uM after 48 hrs by sulforhodamine B assay; type: functional; conditions: read-out: GI
[15] = system: SF-295; assay: Cytotoxicity against human SF-295 cells assessed as growth inhibition at 10 uM after 48 hrs by sulforhodamine B assay; type: functional; conditions: read-out: GI
[16] = system: MCF7; assay: Induction of apoptosis in human MCF7 cells assessed as late apoptotic cells at 13.30 uM after 48 hrs by annexin V-FITC/propidium iodide staining based flow cytometric analysis (reference value: 0.14%); type: functional; conditions: dose 13.3 µM
[17] = system: SNB-75; assay: Cytotoxicity against human SNB-75 cells assessed as growth inhibition at 10 uM after 48 hrs by sulforhodamine B assay; type: functional; conditions: read-out: GI
[18] = system: LOX IMVI; assay: Cytotoxicity against human LOX IMVI cells assessed as growth inhibition at 10 uM after 48 hrs by sulforhodamine B assay; type: functional; conditions: read-out: GI
[19] = system: MCF7; assay: Induction of cell cycle arrest in human MCF7 cells assessed as accumulation of cells at G phase at IC50 concentration by Propidium iodide staining based flow cytometric analysis (reference value: 1.76%); type: functional
[20] = system: UO-31; assay: Cytotoxicity against human UO-31 cells assessed as growth inhibition at 10 uM after 48 hrs by sulforhodamine B assay; type: functional; conditions: read-out: GI
[21] = system: MCF7; assay: Antiproliferative activity against human MCF7 cells assessed as inhibition of cell growth incubated for 48 hrs by MTT assay; type: functional, cell-based; conditions: MCF7, 48 h
[22] = system: CAKI-1; assay: Cytotoxicity against human CAKI-1 cells assessed as growth inhibition at 10 uM after 48 hrs by sulforhodamine B assay; type: functional; conditions: read-out: GI
[23] = system: NCI-H460; assay: Cytotoxicity against human NCI-H460 cells assessed as growth inhibition at 10 uM after 48 hrs by sulforhodamine B assay; type: functional; conditions: read-out: GI
[24] = system: MCF7; assay: Cytotoxicity against human MCF7 cells assessed as growth inhibition at 10 uM after 48 hrs by sulforhodamine B assay; type: functional; conditions: read-out: GI
[25] = system: MCF7; assay: Induction of cell cycle arrest in human MCF7 cells assessed as accumulation of cells at S phase at IC50 concentration by Propidium iodide staining based flow cytometric analysis (reference value: 27.61%); type: functional
[26] = system: UACC-62; assay: Cytotoxicity against human UACC-62 cells assessed as growth inhibition at 10 uM after 48 hrs by sulforhodamine B assay; type: functional; conditions: read-out: GI
[27] = system: MCF7; assay: Induction of cell cycle arrest in human MCF7 cells assessed as accumulation of cells at G2/M phase at IC50 concentration by Propidium iodide staining based flow cytometric analysis (reference value: 10.94%); type: functional
[28] = system: MDA-MB-231; assay: Cytotoxicity against human MDA-MB-231 cells assessed as growth inhibition at 10 uM after 48 hrs by sulforhodamine B assay; type: functional; conditions: read-out: GI

SMILES: COC(=O)/C=C1\S/C(=N\N=C\c2ccc(OCC(F)(F)F)cc2)N(c2ccccc2)C1=O
- inhibition of growth at 10 µM [1]: 35.5%
- inhibition of growth at 10 µM [2]: 18.2%
- inhibition of growth at 10 µM [3]: 17.3%
- inhibition of growth at 10 µM [4]: 24.6%
- Activity [5]: 2.71%
- inhibition of growth at 10 µM [6]: 25.7%
- inhibition of growth at 10 µM [7]: 12.2%
- inhibition of growth at 10 µM [8]: 24%
- inhibition of growth at 10 µM [9]: 13.4%
- inhibition of growth at 10 µM [10]: 31.5%
- inhibition of growth at 10 µM [11]: 28.6%
- Activity [12]: 55.47%
- IC50 [13]: 53.5 µM
- inhibition of growth at 10 µM [14]: 28.8%
- inhibition of growth at 10 µM [15]: 13.2%
- Activity [16]: 9.42%
- inhibition of growth at 10 µM [17]: 28.2%
- inhibition of growth at 10 µM [18]: 24.1%
- Activity [19]: 19.52%
- inhibition of growth at 10 µM [20]: 24.8%
- IC50 [21]: 13.3 µM
- inhibition of growth at 10 µM [22]: 26.6%
- inhibition of growth at 10 µM [23]: 14.2%
- inhibition of growth at 10 µM [24]: 33.2%
- Activity [25]: 36.02%
- inhibition of growth at 10 µM [26]: 18.9%
- Activity [27]: 8.51%
- inhibition of growth at 10 µM [28]: 21.5%

From ChEMBL document CHEMBL5055672, “Design, Synthesis, Biological Evaluation, and Computational Studies of Novel Fluorinated Candidates as PI3K Inhibitors: Targeting Fluorophilic Binding Sites” (J Med Chem, 2021)
